Experimental data taken from patent US7338968B2, “Thiadiazoles AS CXC- and CC- chemokine receptor ligands” (Schering Corporation, priority 2003, dated 2008).

Experiments:
CCR7 = biological target: T1, CCR7 (Homo sapiens, UniProt P32248); assay: CCR7 [35S]GTPγS exchange assay (SPA, Ba/F3-CCR7 membranes, 2 nM MIP-3); format: biochemical
T1 construct: expressed in transfected cells; host or cells: Ba/F3 cells (membranes prepared in house)
T1 sequence (P32248 25-378): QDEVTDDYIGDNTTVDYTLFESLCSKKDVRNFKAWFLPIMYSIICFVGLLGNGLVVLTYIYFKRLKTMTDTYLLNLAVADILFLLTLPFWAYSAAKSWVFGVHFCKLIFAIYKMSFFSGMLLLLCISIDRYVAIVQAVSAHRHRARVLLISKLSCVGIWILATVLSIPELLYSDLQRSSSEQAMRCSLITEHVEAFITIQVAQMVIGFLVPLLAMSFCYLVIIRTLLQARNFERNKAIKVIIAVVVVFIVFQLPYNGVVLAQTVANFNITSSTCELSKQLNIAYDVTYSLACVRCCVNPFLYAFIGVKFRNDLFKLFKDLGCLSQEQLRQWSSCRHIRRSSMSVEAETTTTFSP
Description: CCR7 Membrane Preparation.
Ba/F3-CCR7 membranes were prepared as previously described (Hipkin et al., J. Biol. Chem., 272, 1997, 13869-76). Cells were pelleted by centrifugation, incubated in homogenization buffer (10 mM Tris-HCl, 5 mM EDTA, 3 mM EGTA, pH 7.6) and 1 μM PMSF for 30 min. on ice. The cells were then lysed with a Dounce homogenizer using stirrer type RZR3 polytron homogenizer (Caframo, Wiarton, Ont.) with 12 strokes at 900 RPM. The intact cells and nuclei were removed by centrifugation at 500×g for 5 min. The cell membranes in the supernatant were then pelleted by centrifugation at 100,000×g for 30 min. The membranes were then resuspended in glygly buffer (20 mM glycylglycine, 1 mM MgCl2, 250 mM sucrose, pH 7.2), aliquoted, quick frozen and stored at −80° C.
CCR7 [^35S]GTPγS Exchange Assay.
The exchange of guanosine 5′-[γ-^35S]triphospate ([^35S]GTPγS, triethylammonium salt; specific activity=1250 Ci/mmol; NEN Boston, Mass.) was measured using a scintillation proximity assay (SPA) as previously described (Cox, et. al., Mol. Pharmacol., 59, 2001, 707-15). […] Membrane-bound [^35S]GTPγS was measured using a 1450 Microbeta Trilux counter (Wallac, Gaithersburg, Md.).

hCXCR2 = biological target: T2, hCXCR2 (Homo sapiens, UniProt P25025); assay: CXCR2 SPA assay ([125I]-IL-8 binding, hCXCR2-CHO membranes; incl. alternative 50 μl and 200 μl protocols)
T2 construct: purchased Biosignal / Biosignal Packard; host or cells: CHO cells (membranes)
T2 sequence (P25025 1-360): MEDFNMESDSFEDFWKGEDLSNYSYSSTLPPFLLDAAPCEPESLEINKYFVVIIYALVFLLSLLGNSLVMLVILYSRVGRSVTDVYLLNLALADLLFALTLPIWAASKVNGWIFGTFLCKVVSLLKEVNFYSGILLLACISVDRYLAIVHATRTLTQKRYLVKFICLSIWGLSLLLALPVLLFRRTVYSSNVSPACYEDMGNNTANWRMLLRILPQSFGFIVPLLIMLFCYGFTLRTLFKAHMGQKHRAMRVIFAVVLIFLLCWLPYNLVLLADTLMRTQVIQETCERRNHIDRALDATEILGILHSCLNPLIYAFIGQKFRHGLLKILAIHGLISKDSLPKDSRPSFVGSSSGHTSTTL
Description: For each well of a 96 well plate, a reaction mixture of 4 μg hCXCR2-CHO overexpressing membranes (Biosignal) and 200 μg/well WGA-SPA beads (Amersham) in 100 μl was prepared in CXCR2 assay buffer (25 mM HEPES, pH 7.4, 2 mM CaCl2, 1 mM MgCl2). A 0.4 nM stock of ligand, [^125I]-IL-8 (NEN), was prepared in the CXCR2 assay buffer. 20× stock solutions of test compounds were prepared in DMSO (Sigma). A 6× stock solution of GRO-α (R&D) was prepared in CXCR2 assay buffer. […]
For each 50 μl reaction, a working stock of 0.031 μg/μl hCXCR2-CHO over-expressing membranes with a specific activity of 0.4 pmol/mg (Biosignal Packard) and 2.5 μg/μl WGA-SPA beads (Perkin Elmer Life Sciences) was prepared in CXCR2 assay buffer (25 mM HEPES, pH 7.4, 2.0 mM CaCl2, 1 mM MgCl2) (Sigma). […] The assay plates were incubated for 2 hours before cpm/well were determined in a Microbeta Trilux counter (Perkin Elmer Life Sciences). IC50 values were quantified using nonlinear regression analysis in GraphPad Prism. […]
For each 200 μl reaction, a working stock of 0.02 μg/μl hCXCR2—CHO over-expressing membranes with a specific activity of 0.6 pmol/mg (Biosignal Packard) and 2 μg/μl WGA-SPA beads (Perkin Elmer Life Sciences) was prepared in CXCR2 assay buffer (25 mM HEPES, pH 7.4, 2.0 mM CaCl2, 1 mM MgCl2) (Sigma). […] IC50 values were quantified using nonlinear regression analysis in GraphPad Prism.

hCXCR1 = biological target: T3, hCXCR1 (Homo sapiens, UniProt P25024); assay: CXCR1 SPA assay ([125I]-IL-8 binding, hCXCR1-CHO membranes; incl. alternative Biosignal Packard and Euroscreen protocols)
T3 construct: purchased Biosignal / Biosignal Packard; alternatively Euroscreen; host or cells: CHO cells (membranes)
T3 sequence (P25024 1-350): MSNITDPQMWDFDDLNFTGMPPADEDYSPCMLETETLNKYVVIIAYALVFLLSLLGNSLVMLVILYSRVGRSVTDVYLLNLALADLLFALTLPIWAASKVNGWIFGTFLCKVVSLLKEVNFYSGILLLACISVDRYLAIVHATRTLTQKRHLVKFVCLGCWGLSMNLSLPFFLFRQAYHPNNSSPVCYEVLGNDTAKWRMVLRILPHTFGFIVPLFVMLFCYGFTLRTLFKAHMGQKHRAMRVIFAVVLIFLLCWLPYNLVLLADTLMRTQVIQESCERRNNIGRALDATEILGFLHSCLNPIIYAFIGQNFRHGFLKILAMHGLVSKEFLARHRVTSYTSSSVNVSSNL
Description: For each well of a 96 well plate, a reaction mixture of 10 μg hCXCR1-CHO overexpressing membranes (Biosignal) and 200 μg/well WGA-SPA beads (Amersham) in 100 μl was prepared in CXCR1 assay buffer (25 mM HEPES, pH 7.8, 2 mM CaCl2, 1 mM MgCl2, 125 mM NaCl, 0.1% BSA) (Sigma). A 0.4 nM stock of ligand, [125I]-IL-8 (NEN) was prepared in the CXCR1 assay buffer. 20× stock solutions of test compounds were prepared in DMSO (Sigma). […] The above solutions were added to a 96-well assay plate (PerkinElmer) as follows: 10 μl test compound or DMSO, 40 μl CXCR1 assay buffer or IL-8 stock, 100 μl of reaction mixture, 50 μl of ligand stock (Final [Ligand]=0.1 nM).
For each 50 μl reaction, a working stock of 0.25 μg/μl hCXCR1-CHO over-expressing membranes with a specific activity of 0.05 pmol/mg (Biosignal Packard) and 25 μg/μl WGA-SPA beads (Perkin Elmer Life Sciences) was prepared in CXCR1 assay buffer (25 mM HEPES, pH 7.8, 0.1 mM CaCl2, 1 mM MgCl2, 100 mM NaCl) (Sigma). This mixture was incubated on ice for 30 minutes and then centrifuged at 2500 rpm for 5 minutes. The beads and membranes were resuspended in CXCR1 assay buffer to the same concentrations as in the original mixture. […] The assay plates were incubated for 4 hours before cpm/well were determined in a Microbeta Trilux counter (Perkin Elmer Life Sciences). IC50 values were quantified using nonlinear regression analysis in GraphPad Prism. […]

| SMILES | EC50 (CCR7) [nM] | Ki (hCXCR2) [nM] | Ki (hCXCR1) [nM] |
| --- | --- | --- | --- |
| Cc1ccc([C@H](Nc2nsnc2Nc2cccc(C(=O)N(C)C)c2O)C(C)C)o1 [Example 3] | 880 |  |  |
| Cc1ccc([C@H](Nc2nsnc2Nc2cccc(C(=O)N(C)C)c2O)C(C)(C)C)o1 [Example 6] | 22 | 14 |  |
| CC[C@@H](Nc1nsnc1Nc1cccc(C(=O)N(C)C)c1O)c1cc(C(C)C)co1 [Example 1] |  | 28 | 808 |
